In ChEMBL document CHEMBL1148629, “Pyrrolopyridazine MEK inhibitors” (Bioorg Med Chem Lett, 2006):

Experiments:
[1] = molecular target: Dual specificity mitogen-activated protein kinase kinase 1 (Homo sapiens, UniProt Q02750); experiment: Inhibitory activity against MEK
HT-29 = experiment: Antiproliferative activity against human tumor HT29 cell line; type: functional
COLO 205 = experiment: Antiproliferative activity against human tumor Colo205 cell line; type: functional
[2] = molecular target: Vascular endothelial growth factor receptor 2 (Homo sapiens) (UniProt P35968); experiment: Inhibitory activity against VEGFR2 upto 50 uM
Sequence of Vascular endothelial growth factor receptor 2 (Homo sapiens) (P35968 whole entry): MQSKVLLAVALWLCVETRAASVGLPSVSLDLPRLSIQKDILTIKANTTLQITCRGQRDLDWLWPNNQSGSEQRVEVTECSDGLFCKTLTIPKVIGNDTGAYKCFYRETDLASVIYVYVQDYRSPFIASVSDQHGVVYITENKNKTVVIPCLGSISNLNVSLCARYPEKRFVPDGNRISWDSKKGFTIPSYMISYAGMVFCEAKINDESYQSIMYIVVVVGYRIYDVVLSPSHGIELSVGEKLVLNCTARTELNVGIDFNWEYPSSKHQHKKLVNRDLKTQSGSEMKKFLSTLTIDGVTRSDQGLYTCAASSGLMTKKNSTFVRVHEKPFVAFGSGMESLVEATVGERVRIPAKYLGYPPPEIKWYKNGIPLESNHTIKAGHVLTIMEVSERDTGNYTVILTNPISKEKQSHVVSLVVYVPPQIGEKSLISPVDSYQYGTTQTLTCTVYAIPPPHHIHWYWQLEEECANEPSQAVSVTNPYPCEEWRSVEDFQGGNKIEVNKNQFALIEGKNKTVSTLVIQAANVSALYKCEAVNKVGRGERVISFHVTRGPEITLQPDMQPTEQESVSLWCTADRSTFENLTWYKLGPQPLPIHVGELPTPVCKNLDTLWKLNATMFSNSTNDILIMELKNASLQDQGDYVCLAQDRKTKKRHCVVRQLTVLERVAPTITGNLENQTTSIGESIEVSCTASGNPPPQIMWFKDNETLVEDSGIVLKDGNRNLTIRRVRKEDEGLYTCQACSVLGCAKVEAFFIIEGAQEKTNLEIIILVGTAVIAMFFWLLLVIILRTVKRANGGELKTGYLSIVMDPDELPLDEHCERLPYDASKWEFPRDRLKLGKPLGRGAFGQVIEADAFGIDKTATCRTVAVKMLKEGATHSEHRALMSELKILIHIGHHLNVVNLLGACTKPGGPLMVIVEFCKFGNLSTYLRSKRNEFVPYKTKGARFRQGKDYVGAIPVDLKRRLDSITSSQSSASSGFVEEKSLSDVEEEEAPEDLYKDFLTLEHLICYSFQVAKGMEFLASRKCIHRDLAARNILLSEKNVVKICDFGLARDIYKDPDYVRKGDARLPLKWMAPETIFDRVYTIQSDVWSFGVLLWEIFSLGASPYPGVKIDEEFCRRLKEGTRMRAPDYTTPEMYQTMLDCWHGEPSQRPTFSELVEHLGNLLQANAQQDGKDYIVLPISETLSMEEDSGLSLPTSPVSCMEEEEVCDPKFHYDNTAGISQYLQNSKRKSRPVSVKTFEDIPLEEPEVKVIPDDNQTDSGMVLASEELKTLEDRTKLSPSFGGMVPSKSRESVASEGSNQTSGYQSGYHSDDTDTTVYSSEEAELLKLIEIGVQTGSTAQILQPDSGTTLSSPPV

Sequence of Dual specificity mitogen-activated protein kinase kinase 1 (Q02750 whole entry): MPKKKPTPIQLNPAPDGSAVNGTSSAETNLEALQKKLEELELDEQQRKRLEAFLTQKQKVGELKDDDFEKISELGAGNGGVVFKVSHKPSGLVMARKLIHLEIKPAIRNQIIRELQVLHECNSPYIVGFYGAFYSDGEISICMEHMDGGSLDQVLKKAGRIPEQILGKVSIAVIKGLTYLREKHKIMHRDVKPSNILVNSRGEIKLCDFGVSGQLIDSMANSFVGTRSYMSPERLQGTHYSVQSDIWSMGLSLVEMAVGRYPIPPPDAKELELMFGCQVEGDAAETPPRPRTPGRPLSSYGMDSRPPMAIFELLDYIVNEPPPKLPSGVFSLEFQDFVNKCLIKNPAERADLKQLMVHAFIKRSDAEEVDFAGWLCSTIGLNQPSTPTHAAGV

## Cc1c(C(=O)O)cn2ncc(CNS(C)(=O)=O)c(Nc3ccc(Oc4ccccc4)cc3)c12
[1]
  IC50: > 25000 nM

## CCOC(=O)c1cn2ncc(C#N)c(Nc3ccc(Oc4ccccc4)cc3)c2c1CO
[1]
  IC50: 203 nM

## Cc1c(C(=O)NCCN2CCOCC2)cn2ncc(C#N)c(Nc3ccc(Oc4ccccc4)cc3)c12
[1]
  IC50: 386 nM

## Cc1c(NC(=O)c2ccccc2)cn2ncc(C#N)c(Nc3ccc(Oc4ccccc4)cc3)c12
HT-29
  Activity: 2.13 µM
COLO 205
  Activity: 2.42 µM
[1]
  IC50: 42 nM

## Cc1c(C(=O)O)cn2ncc(CN)c(Nc3ccc(Oc4ccccc4)cc3)c12
[1]
  IC50: > 25000 nM

## COC(=O)Nc1cn2ncc(C#N)c(Nc3ccc(Oc4ccccc4)cc3)c2c1C
HT-29
  Activity: 7.64 µM
[1]
  IC50: 23 nM

## CC(=O)NCc1cnn2cc(C(=O)O)c(C)c2c1Nc1ccc(Oc2ccccc2)cc1
[1]
  IC50: > 25000 nM

## COc1cccc(Oc2ccc(Nc3c(C#N)cnn4cc(NC(=O)OCCN5CCOCC5)c(C)c34)cc2)c1
HT-29
  Activity: 2.35 µM
COLO 205
  Activity: 0.72 µM
[1]
  IC50: 76 nM

## Cc1c(NS(=O)(=O)c2ccccc2)cn2ncc(C#N)c(Nc3ccc(Oc4ccccc4)cc3)c12
[1]
  IC50: 14600 nM

## Cc1c(NC(=O)OCCN2CCOCC2)cn2ncc(C#N)c(Nc3ccc(Oc4ccccc4)cc3)c12
HT-29
  Activity: 3.76 µM
[2]
  inhibition: < 5%
COLO 205
  Activity: 2.88 µM
[1]
  IC50: 58 nM

## Cc1c(-c2nc3ccccc3[nH]2)cn2ncc(C#N)c(Nc3ccc(Oc4ccccc4)cc3)c12
[1]
  IC50: 168 nM

## CCOC(=O)c1cn2ncc(C#N)c(Nc3ccc(-c4ccccc4)cc3)c2c1C
[1]
  IC50: > 25000 nM

## CCOC(=O)c1cn2ncc(C#N)c(Nc3ccc(Oc4ccc(Cl)cc4)cc3)c2c1C
[1]
  IC50: 642 nM

## Cc1c(N)cn2ncc(C#N)c(Nc3ccc(Oc4ccccc4)cc3)c12
[1]
  IC50: 190 nM

## COc1cccc(Oc2ccc(Nc3c(C#N)cnn4cc(NC(=O)NCCN5CCOCC5)c(C)c34)cc2)c1
[1]
  IC50: 29 nM

## Cc1c(NC(=O)NCCN2CCOCC2)cn2ncc(C#N)c(Nc3ccc(Oc4ccccc4F)cc3)c12
[1]
  IC50: 33 nM

## CC(=O)Nc1cccc(C(=O)Nc2cn3ncc(C#N)c(Nc4ccc(Oc5ccccc5)cc4)c3c2C)c1
HT-29
  Activity: 1.34 µM
COLO 205
  Activity: 1.86 µM
[1]
  IC50: 14 nM

## CCOC(=O)c1cn2ncc(C#N)c(Nc3ccc(Nc4ccccc4)cc3)c2c1C
[1]
  IC50: 2320 nM

## CCOC(=O)c1cn2ncnc(Nc3ccc(Oc4ccccc4)cc3)c2c1C
[1]
  IC50: 3470 nM

## CCOC(=O)c1cn2ncc(C#N)c(Nc3ccc(Cc4ccccc4)cc3)c2c1C
[1]
  IC50: 68 nM

## CCOC(=O)c1cn2ncc(C#N)c(Nc3ccccc3)c2c1C
[1]
  IC50: > 25000 nM

## COc1ccccc1Oc1ccc(Nc2c(C#N)cnn3cc(NC(=O)OCCN4CCOCC4)c(C)c23)cc1
HT-29
  Activity: 3.78 µM
COLO 205
  Activity: 2.06 µM
[1]
  IC50: 48 nM

## CCOC(=O)c1cn2ncc(C#N)c(Oc3ccc(Oc4ccccc4)cc3)c2c1C
[1]
  IC50: 5420 nM

## Cc1c(C(=O)O)cn2ncc(C#N)c(Nc3ccc(Oc4ccccc4)cc3)c12
[1]
  IC50: 147 nM

## Cc1c(C(C)(C)O)cn2ncc(C#N)c(Nc3ccc(Oc4ccccc4)cc3)c12
[1]
  IC50: > 25000 nM

## CNC(=O)Nc1cn2ncc(C#N)c(Nc3ccc(Oc4ccccc4)cc3)c2c1C
HT-29
  Activity: 7.38 µM
[1]
  IC50: 18 nM

## Cc1c(NC(=O)NCCN2CCOCC2)cn2ncc(C#N)c(Nc3ccc(Oc4ccccc4)cc3)c12
HT-29
  Activity: 0.86 µM
[2]
  inhibition: < 5%
COLO 205
  Activity: 3.9 µM
[1]
  IC50: 36 nM

## COc1ccccc1Oc1ccc(Nc2c(C#N)cnn3cc(NC(=O)NCCN4CCOCC4)c(C)c23)cc1
[1]
  IC50: 24 nM

## CCOCc1c(C(=O)OCC)cn2ncc(C#N)c(Nc3ccc(Oc4ccccc4)cc3)c12
[1]
  IC50: 331 nM

## Cc1ccn2ncc(C#N)c(Nc3ccc(Oc4ccccc4)cc3)c12
HT-29
  Activity: >10 µM
COLO 205
  Activity: >10 µM
[1]
  IC50: 241 nM

## CCOC(=O)c1cn2ncc(C#N)c(Nc3ccc(OCc4ccccc4)cc3)c2c1C
[1]
  IC50: > 25000 nM

## Cc1c(OCCN2CCOCC2)cn2ncc(C#N)c(Nc3ccc(Oc4ccccc4)cc3)c12
[1]
  IC50: 521 nM

## CCOC(=O)c1cn2ncc(C#N)c(NCc3ccc(Oc4ccccc4)cc3)c2c1C
[1]
  IC50: > 25000 nM

## CCOC(=O)c1cn2ncc(C#N)c(Nc3ccc(Oc4ccccc4)cc3)c2c1COCCOC
[1]
  IC50: 566 nM

## CCOC(=O)c1cn2ncc(C#N)c(Nc3ccc(C(=O)c4ccccc4)cc3)c2c1C
[1]
  IC50: 1110 nM
